Test results: patent US12534474B2, “Dihydrofuropyridine derivatives as rho-kinase inhibitors” (CHIESI FARMACEUTICI S.P.A., priority 2020, dated 2026)

What was measured:
Format in all cases: biochemical
PKA = PKA (Homo sapiens, UniProt P17612); assay: In vitro inhibitory activity assay for PKA, ADP-Glo, reported as selectivity ratio vs ROCK2; conditions: Ki for PKA divided by Ki of ROCK2 (Method B)
Protocol: In Vitro Inhibitory Activity Assay Description for PKA
The effectiveness of compounds of the present invention to inhibit PKA activity can be determined in a 10 μL assay containing 40 mM Tris pH7.5, 20 mM MgCl2 0.1 mg/mL BSA, 50 μM DTT and 260 μM peptide substrate (kemptide) using an ADP-Glo kit (Promega). Compounds were dissolved in DMSO such that the final concentration of DMSO was 1% in the assay. All reactions/incubations are performed at 25° C. Compound and PKA enzyme (6 μL) were mixed and incubated for 30 min. Reactions were initiated by addition of ATP (4 μL) such that the final concentration of ATP in the assay was 10 μM. After a 30 minute incubation 10 μL of ADP-Glo Reagent was added and after a further 1 hour incubation 20 μL of Kinase Detection Buffer was added and the mixture incubated for a further 45 minutes. The luminescent signal was measured on a luminometer. […] Compounds were tested in dose-response format and the inhibition of kinase activity was calculated at each concentration of compound. To determine the IC50 (concentration of compound required to inhibit 50% of the enzyme activity) data were fit to a plot of % inhibition vs Log10 compound concentration using a sigmoidal fit with a variable slope and fixing the maximum to 100% and the minimum to 0%. To determine the Ki values the Cheng-Prusoff equation was utilized (Ki=IC50/(1+[S]/Km).
In vitro inhibitory activities for PKA were reported as selectivity ratio vs. ROCK2. Selectivity ratio PKA/ROCK2 was calculated by dividing the Ki value for PKA by Ki value of ROCK2 (Method B) and reported into table 1.

ROCK1 = ROCK1 (Homo sapiens, UniProt Q13464); assay: In vitro Rho kinase inhibitory activity assay, ADP-Glo, Method B (ATP 200 μM); conditions: read-out: Method B ROCK 1 (Ki)
Chain of ROCK1 (Q13464 whole entry): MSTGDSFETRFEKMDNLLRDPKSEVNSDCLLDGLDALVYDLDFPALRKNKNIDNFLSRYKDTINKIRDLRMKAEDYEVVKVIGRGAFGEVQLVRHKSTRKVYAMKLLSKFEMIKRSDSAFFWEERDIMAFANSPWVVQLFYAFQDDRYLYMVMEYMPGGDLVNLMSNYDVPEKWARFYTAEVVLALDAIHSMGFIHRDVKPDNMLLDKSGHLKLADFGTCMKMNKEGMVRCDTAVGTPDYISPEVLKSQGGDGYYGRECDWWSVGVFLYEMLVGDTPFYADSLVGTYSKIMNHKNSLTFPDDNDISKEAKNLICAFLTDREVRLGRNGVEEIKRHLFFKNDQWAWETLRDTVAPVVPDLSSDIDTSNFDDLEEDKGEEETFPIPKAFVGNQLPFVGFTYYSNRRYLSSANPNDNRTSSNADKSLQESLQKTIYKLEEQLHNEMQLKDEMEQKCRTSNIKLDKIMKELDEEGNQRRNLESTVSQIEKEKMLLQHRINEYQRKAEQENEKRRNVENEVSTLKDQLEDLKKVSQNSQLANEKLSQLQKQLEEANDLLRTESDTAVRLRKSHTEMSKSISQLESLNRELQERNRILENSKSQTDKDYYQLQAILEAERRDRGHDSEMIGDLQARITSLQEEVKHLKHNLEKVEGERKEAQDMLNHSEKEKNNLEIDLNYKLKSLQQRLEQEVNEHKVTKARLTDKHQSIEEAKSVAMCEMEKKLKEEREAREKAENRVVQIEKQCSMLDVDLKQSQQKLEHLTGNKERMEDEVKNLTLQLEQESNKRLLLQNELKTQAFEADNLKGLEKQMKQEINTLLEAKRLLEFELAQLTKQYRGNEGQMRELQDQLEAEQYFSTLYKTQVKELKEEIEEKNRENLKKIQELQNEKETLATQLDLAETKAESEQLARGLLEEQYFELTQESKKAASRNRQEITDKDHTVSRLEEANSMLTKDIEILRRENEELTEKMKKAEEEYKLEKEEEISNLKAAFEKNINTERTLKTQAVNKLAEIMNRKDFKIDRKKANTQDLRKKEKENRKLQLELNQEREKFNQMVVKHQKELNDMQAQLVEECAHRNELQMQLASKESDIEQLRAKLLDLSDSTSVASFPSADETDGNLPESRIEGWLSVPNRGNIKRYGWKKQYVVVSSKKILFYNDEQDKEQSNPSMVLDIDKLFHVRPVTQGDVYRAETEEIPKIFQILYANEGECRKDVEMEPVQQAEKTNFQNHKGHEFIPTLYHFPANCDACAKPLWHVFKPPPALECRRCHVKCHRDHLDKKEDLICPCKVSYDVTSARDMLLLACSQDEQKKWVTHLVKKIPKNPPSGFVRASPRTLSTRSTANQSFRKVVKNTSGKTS
Protocol: (§1) In Vitro Inhibitory Activity Assay Description (Method B)
(§2) The effectiveness of compounds of the present invention to inhibit Rho kinase activity can be determined in a 10 μL assay containing 40 mM Tris pH7.5, 20 mM MgCl2 0.1 mg/mL BSA, 50 μM DTT and 2.5 μM peptide substrate (Myelin Basic Protein) using an ADP-Glo kit (Promega). Compounds were dissolved in DMSO such that the final concentration of DMSO was 1% in the assay. All reactions/incubations are performed at 25° C. Compound (2 ul) and either Rho kinase 1 or 2 (4 μL) were mixed and incubated for 30 min. Reactions were initiated by addition of ATP (4 μL) such that the final concentration of ATP in the assay was 200 μM. After a 1 hour incubation 10 μL of ADP-Glo Reagent was added and after a further 45 minute incubation 20 ul of Kinase Detection Buffer was added and the mixture incubated for a further 30 minutes. The luminescent signal was measured on a luminometer. […] Compounds were tested in dose-response format and the inhibition of kinase activity was calculated at each concentration of compound. To determine the IC50 (concentration of compound required to inhibit 50% of the enzyme activity) data were fit to a plot of % inhibition vs Log 10 compound concentration using a sigmoidal fit with a variable slope and fixing the maximum to 100% and the minimum to 0%. To determine the Ki values the Cheng-Prusoff equation was utilized (Ki=IC50/(1+[S]/Km).

ROCK2 = ROCK2 (Homo sapiens, UniProt O75116); assay: as above; conditions: read-out: Method B ROCK 2 (Ki)
Chain of ROCK2 (O75116 whole entry): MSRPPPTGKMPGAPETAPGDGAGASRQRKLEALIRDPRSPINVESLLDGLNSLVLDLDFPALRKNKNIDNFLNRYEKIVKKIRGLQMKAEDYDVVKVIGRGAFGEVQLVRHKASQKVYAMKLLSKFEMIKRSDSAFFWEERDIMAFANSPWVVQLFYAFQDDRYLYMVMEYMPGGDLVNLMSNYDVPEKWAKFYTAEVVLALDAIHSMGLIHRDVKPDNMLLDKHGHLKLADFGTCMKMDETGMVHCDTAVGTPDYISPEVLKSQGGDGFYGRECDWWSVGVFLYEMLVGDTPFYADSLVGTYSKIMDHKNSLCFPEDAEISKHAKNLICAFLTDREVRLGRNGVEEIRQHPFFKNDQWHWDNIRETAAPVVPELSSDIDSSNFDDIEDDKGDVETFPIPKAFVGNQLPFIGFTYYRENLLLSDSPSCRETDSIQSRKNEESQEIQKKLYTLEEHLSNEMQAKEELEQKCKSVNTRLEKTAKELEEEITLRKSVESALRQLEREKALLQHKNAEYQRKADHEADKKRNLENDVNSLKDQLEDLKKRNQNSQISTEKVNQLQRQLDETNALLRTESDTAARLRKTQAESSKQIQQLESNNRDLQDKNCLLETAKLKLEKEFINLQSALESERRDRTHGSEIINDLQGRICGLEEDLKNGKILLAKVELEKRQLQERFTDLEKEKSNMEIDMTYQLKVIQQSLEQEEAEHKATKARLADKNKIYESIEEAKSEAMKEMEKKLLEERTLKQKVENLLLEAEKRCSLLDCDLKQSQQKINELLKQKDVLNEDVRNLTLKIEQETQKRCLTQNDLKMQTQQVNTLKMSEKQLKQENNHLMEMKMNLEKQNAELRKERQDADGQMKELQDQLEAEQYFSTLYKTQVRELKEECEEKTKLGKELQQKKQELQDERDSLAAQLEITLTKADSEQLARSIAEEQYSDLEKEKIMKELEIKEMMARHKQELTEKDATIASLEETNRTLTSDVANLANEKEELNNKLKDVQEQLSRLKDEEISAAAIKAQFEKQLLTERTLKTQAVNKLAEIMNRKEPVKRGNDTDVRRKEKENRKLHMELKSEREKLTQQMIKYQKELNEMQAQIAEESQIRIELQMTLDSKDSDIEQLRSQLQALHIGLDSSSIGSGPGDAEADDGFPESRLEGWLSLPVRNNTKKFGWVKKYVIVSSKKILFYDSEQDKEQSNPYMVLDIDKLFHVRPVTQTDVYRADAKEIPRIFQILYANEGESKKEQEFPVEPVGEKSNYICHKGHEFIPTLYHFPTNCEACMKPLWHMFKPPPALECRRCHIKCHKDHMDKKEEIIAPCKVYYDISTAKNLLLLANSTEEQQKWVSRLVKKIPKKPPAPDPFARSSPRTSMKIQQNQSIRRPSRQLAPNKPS
Protocol: as §1, §2

Ratio (PKA/ROCK2) (PKA) | Ki (ROCK1) [nM] | Ki (ROCK2) [nM] | Compound
*** (ratio≥10) | 3 to 30 | 3 to 30 | CNC(=O)c1cccc(CNc2ncc(-c3ccnc(N)c3F)c3c2CCO3)c1 [Example 46, 3-(((7-(2-Amino-3-fluoropyridin-4-yl)-2,3-dihydrofuro[3,2-c]pyridin-4-yl)amino)methyl)-N-methylbenzamide]
*** (ratio≥10) | 3 to 30 | 3 to 30 | O=C(NCCCF)c1cccc(CNc2ncc(-c3ccncc3)c3c2CCO3)c1 [Example 4, N-(3-fluoropropyl)-3-(((7-(pyridin-4-yl)-2,3-dihydrofuro[3,2-c]pyridin-4-yl)amino)methyl)benzamide]
** (5≤ratio<10) | ≤ 3 | 3 to 30 | O=C(NCC1CC1)c1cccc(CNc2ncc(-c3ccncc3)c3c2CCO3)c1 [Example 12, N-(cyclopropylmethyl)-3-(((7-(pyridin-4-yl)-2,3-dihydrofuro[3,2-c]pyridin-4-yl)amino)methyl)benzamide]
*** (ratio≥10) | > 30 | > 30 | CNC(=O)c1cccc(CNc2ncc(-c3cc[nH]c(=O)c3)c3c2CCO3)c1 [Example B, N-methyl-3-(((7-(2-oxo-1,2-dihydropyridin-4-yl)-2,3-dihydrofuro[3,2-c]pyridin-4-yl)amino)methyl)benzamide, reference compound]
*** (ratio≥10) | > 30 | > 30 | CNC(=O)c1cccc(CNc2ncc(-c3ccncc3)c3c2OCC3)c1 [Example C, N-methyl-3-(((4-(pyridin-4-yl)-2,3-dihydrofuro[2,3-c]pyridin-7-yl)amino)methyl)benzamide, reference compound]
– | 3 to 30 | 3 to 30 | CNC(=O)c1cccc(CNc2ncc(-c3ccncc3F)c3c2CCO3)c1 [Example 45, 3-(((7-(3-Fluoropyridin-4-yl)-2,3-dihydrofuro[3,2-c]pyridin-4-yl)amino)methyl)-N-methylbenzamide]
*** (ratio≥10) | 3 to 30 | ≤ 3 | Cn1cnc(CNC(=O)c2cccc(CNc3ncc(-c4ccncc4)c4c3CCO4)c2)c1 [Example 3, N-((1-methyl-1H-imidazol-4-yl)methyl)-3-(((7-(pyridin-4-yl)-2,3-dihydrofuro[3,2-c]pyridin-4-yl)amino)methyl)benzamide]

The remaining lines, values behind:

Compound | Ratio (PKA/ROCK2) (PKA) | Ki (ROCK1) [nM] | Ki (ROCK2) [nM]
O=C(Nc1cccnn1)c1cccc(CNc2ncc(-c3ccncc3)c3c2CCO3)c1 [Example 17, N-(pyridazin-3-yl)-3-(((7-(pyridin-4-yl)-2,3-dihydrofuro[3,2-c]pyridin-4-yl)amino)methyl)benzamide] | *** (ratio≥10) | 3 to 30 | 3 to 30
CC(C)(C)N1CC(CNC(=O)c2cccc(CNc3ncc(-c4ccncc4)c4c3CCO4)c2)CC1=O (centres unmarked) [Example 15, N-((1-(tert-butyl)-5-oxopyrrolidin-3-yl)methyl)-3-(((7-(pyridin-4-yl)-2,3-dihydrofuro[3,2-c]pyridin-4-yl)amino)methyl)benzamide] | *** (ratio≥10) | ≤ 3 | ≤ 3
COc1ccc(NC(=O)c2cccc(CNc3ncc(-c4ccncc4)c4c3CCO4)c2)nc1 [Example 14, N-(5-methoxypyridin-2-yl)-3-(((7-(pyridin-4-yl)-2,3-dihydrofuro[3,2-c]pyridin-4-yl)amino)methyl)benzamide] | *** (ratio≥10) | ≤ 3 | ≤ 3
O=C(NCCC1CCN(C2COC2)CC1)c1cccc(CNc2ncc(-c3ccncc3)c3c2CCO3)c1 [Example 42, N-(2-(1-(Oxetan-3-yl)piperidin-4-yl)ethyl)-3-(((7-(pyridin-4-yl)-2,3-dihydrofuro[3,2-c]pyridin-4-yl)amino)methyl)benzamide] | *** (ratio≥10) | ≤ 3 | ≤ 3
O=C(NC1CC2CN(C3COC3)CC2C1)c1cccc(CNc2ncc(-c3ccncc3)c3c2CCO3)c1 (single isomer, unassigned) [Example 43a, N-(2-(oxetan-3-yl)octahydrocyclopenta[c]pyrrol-5-yl)-3-(((7-(pyridin-4-yl)-2,3-dihydrofuro[3,2-c]pyridin-4-yl)amino)methyl)benzamide] | *** (ratio≥10) | ≤ 3 | ≤ 3
Cn1ccc(CNC(=O)c2cccc(CNc3ncc(-c4ccncc4)c4c3CCO4)c2)n1 [Example 19, N-((1-methyl-1H-pyrazol-3-yl)methyl)-3-(((7-(pyridin-4-yl)-2,3-dihydrofuro[3,2-c]pyridin-4-yl)amino)methyl)benzamide] | *** (ratio≥10) | 3 to 30 | ≤ 3
O=C(Nc1ccncc1)c1cccc(CNc2ncc(-c3ccncc3)c3c2CCO3)c1 [Example 11, N-(pyridin-4-yl)-3-(((7-(pyridin-4-yl)-2,3-dihydrofuro[3,2-c]pyridin-4-yl)amino)methyl)benzamide] | *** (ratio≥10) | ≤ 3 | ≤ 3
CN1CCOC(CNC(=O)c2cccc(CNc3ncc(-c4ccncc4)c4c3CCO4)c2)C1 (centres unmarked) [Example 10, N-((4-methylmorpholin-2-yl)methyl)-3-(((7-(pyridin-4-yl)-2,3-dihydrofuro[3,2-c]pyridin-4-yl)amino)methyl)benzamide] | *** (ratio≥10) | ≤ 3 | ≤ 3
COc1cc(NC(=O)c2cccc(CNc3ncc(-c4ccncc4)c4c3CCO4)c2)ncn1 [Example 31, N-(6-Methoxypyrimidin-4-yl)-3-(((7-(pyridin-4-yl)-2,3-dihydrofuro[3,2-c]pyridin-4-yl)amino)methyl)benzamide] | *** (ratio≥10) | ≤ 3 | ≤ 3
CN(C)CCn1cc(C(=O)Nc2cccc(CNc3ncc(-c4ccncc4)c4c3CCO4)c2)cn1 [Example 41, 1-(2-(Dimethylamino)ethyl)-N-(3-(((7-(pyridin-4-yl)-2,3-dihydrofuro[3,2-c]pyridin-4-yl)amino)methyl)phenyl)-1H-pyrazole-4-carboxamide] | *** (ratio≥10) | 3 to 30 | ≤ 3
O=C(NCc1ccon1)c1cccc(CNc2ncc(-c3ccncc3)c3c2CCO3)c1 [Example 6, N-(isoxazol-3-ylmethyl)-3-(((7-(pyridin-4-yl)-2,3-dihydrofuro[3,2-c]pyridin-4-yl)amino)methyl)benzamide] | *** (ratio≥10) | 3 to 30 | ≤ 3
CC(=O)N1CCC(CCNC(=O)c2cccc(CNc3ncc(-c4ccncc4)c4c3CCO4)c2)CC1 [Example 44, N-(2-(1-Acetylpiperidin-4-yl)ethyl)-3-(((7-(pyridin-4-yl)-2,3-dihydrofuro[3,2-c]pyridin-4-yl)amino)methyl)benzamide] | *** (ratio≥10) | ≤ 3 | ≤ 3
Cc1cc(CNC(=O)c2cccc(CNc3ncc(-c4ccncc4)c4c3CCO4)c2)no1 [Example 2, N-((5-methylisoxazol-3-yl)methyl)-3-(((7-(pyridin-4-yl)-2,3-dihydrofuro[3,2-c]pyridin-4-yl)amino)methyl)benzamide] | *** (ratio≥10) | 3 to 30 | ≤ 3
O=C(NCc1cncnc1)c1cccc(CNc2ncc(-c3ccncc3)c3c2CCO3)c1 [Example 5, 3-(((7-(pyridin-4-yl)-2,3-dihydrofuro[3,2-c]pyridin-4-yl)amino)methyl)-N-(pyrimidin-5-ylmethyl)benzamide] | *** (ratio≥10) | 3 to 30 | 3 to 30
O=C(NC1CC2CN(C3COC3)CC2C1)c1cccc(CNc2ncc(-c3ccncc3)c3c2CCO3)c1 (single isomer, unassigned) [Example 43b, N-(2-(oxetan-3-yl)octahydrocyclopenta[c]pyrrol-5-yl)-3-(((7-(pyridin-4-yl)-2,3-dihydrofuro[3,2-c]pyridin-4-yl)amino)methyl)benzamide] | *** (ratio≥10) | ≤ 3 | ≤ 3
